system: ACS; assay: coupled spectrophotometric assay of AMP formation; assay type: biochemical, Gordonia sp. NB4-1Y; conditions: 2.5 mM ATP, 1.5 mM CoA, 5 mM MgCl2, 1 mM DTT, 50 mM potassium phosphate pH 7.5, 25 °C

Structure (SMILES)	Km [mM]
O=C(O)CCCC(F)(F)F [1:4 FTCA, 5,5,5-trifluoropentanoic acid]	12.5 ± 0.7
CC(=O)O [acetate]	78.3 ± 7.4
CCCCC(=O)O [pentanoic acid]	0.109 ± 0.011
CCC(=O)O [propionic acid]	1.7 ± 0.2
